Results published in US7091242B2, “Beta-amino acid derivatives as integrin receptor antagonists” (Bayer Aktiengesellschaft, priority 2000, dated 2006).
pIC50: −log10 of the molar value.

What was measured:
[1] = tested on: Ramos cells / immobilized VCAM-1 (extracellular domains 1–3); test: Adhesion of Ramos cells to immobilized VCAM-1 (domains 1–3); format: cell-based; settings: Homo sapiens, 1 h
Excerpt: In Vitro Assay: Adhesion of Ramos Cells to Immobilized VCAM-1 (Domains 1–3) Preparation of VCAM-1 (extracellular domains 1–3)
Complementary DNA (cDNA) encoding 7-domain form of VCAM-1 (GenBank accession #M60335) was obtained using Rapid-ScreenTM cDNA library panels (OriGene Technologies, Inc) at Takara Gene Analysis Center (Shiga, Japan). The primers used were 5′-CCAAGGCAGAGTACGCAAAC-3′ (sense) and 5′-TGGCAGGTATTATTAAGGAG-3′ (antisense). PCR amplification of the 3-domain VCAM-1 cDNA was perform using Pfu DNA polymerase (Stratagene) with the following sets of primers: (U-VCAMd1–3) 5′-CCATATGGTACCTGATCAATTTAAAATCGAGACCACCCCAGAA-3′; (L-VCAMd1–3) 5′-CCATATAGCAATCCTAGGTCCAGGGGAGATCTCAACAGTAAA-3′. PCR cycle was 94° C. for 45 sec, 55° C. for 45 sec, 72° C. for 2 min, repeating 15 cycles. After the purification of the PCR product, the fragment was digested with KpnI-AvrII. The digested fragment was ligated into pBluescript IISK(-) (Strategene), which was linearized by digesting with KpnI-XhoI. The ligation was followed by transformation to a Dam/Dcm methylase-free E. coli strain SCS110 (Strategene) to create the donor plasmid pHH7. To direct VCAM-1 molecule into the insect cell secretory pathway, the VCAM-1 coding sequence was fused to signal peptide sequence of honeybee melittin. The resulting melittin-VCAM fusion was placed in correct orientation to the baculovirus polyhedrin promoter. Baculovirus transfer vector containing first 3-domain form VCAM-1 (pH10) was constructed by ligation of 0.9 kb fragment from AvrIIenow/BclI digests of pH7 into SalI/Klenow/BamHI digests of pMelBacB (Invitrogen). Recombinant baculovirus was generated by using Bac-N-Blue™ Transfection kit (Invitrogen) according to the manufacture's instruction. The recombinant virus was amplified by infection to High-Five™ insect cells for 5–6 days, and virus titer was determined by plaque assay.
High-Five™ insect cells were pelleted in a 225 ml conical tube by centrifugation at 1000 rpm for 5 min. After discarding the supernatant, the pellet was resuspended in 1.5×10^9 pfu (MOI=5) of high-titer virus solution, followed by incubation for 1.5 hours at room temperature. The cells were pelleted again and washed once in fresh Express Five™ serum free medium. The cells were pelleted again and finally, resuspended in 200 ml of fresh Express Five™ medium, transferred to a 1,000 ml shaker flask, and incubated in a shaker at 27° C., 130 rpm, for 48 hours before the culture supernatant was collected. […] Protein concentration was determined by using Coomassie protein assay reagent (Pierce) according to the manufacture's instruction. […]
Preparation of Fluorescence Labeled Ramos Cells: […]

Row | Structure (SMILES) | pIC50 [1] | melting point
1 | COc1ccc(C(CC(=O)Nc2ccc(NC(=O)Nc3ccccc3C)cc2)NC(=O)c2ccc(C(=O)O)cc2)cc1OC (stereo not shown) [Example 1, 4-{[(1-(3,4-Dimethoxyphenyl)-3-{[4-({[(2-methylphenyl)amino]carbonyl}amino)phenyl]amino}-3-oxopropyl)amino]carbonyl}benzoic acid] | > 6.00 | 166 °C
2 | Cc1ccccc1NC(=O)Nc1ccc(CNC(=O)C2(CNC(=O)c3ccc(C(=O)O)cc3)CCCCC2)cc1 [Example 2, 4-[({[1-({[4-({[(2-methylphenyl)amino]carbonyl}-amino)benzyl]amino}carbonyl)cyclohexyl]methyl}-amino)carbonyl]benzoicacid] | < 5.00 | –
3 | COc1ccc(C(CC(=O)NCc2ccc(NC(=O)Nc3ccccc3C)cc2)NC(=O)c2ccc(C(=O)O)cc2)cc1OC (stereo not shown) [Example 3, 4-{[(1-(3,4-dimethoxy-phenyl)-3-{[4-({[(2-methyl-phenyl)amino]carbonyl}amino)benzyl]amino}-3-oxopropyl)amino]carbonyl}benzoic acid] | < 5.00 | 214 °C
4 | COc1cccc(C(CC(=O)Nc2ccc(NC(=O)Nc3ccccc3C)cc2)NC(=O)c2ccc(C(=O)O)cc2)c1 (stereo not shown) [Example 4, 4-{[(1-(3-methoxy-phenyl)-3-{[4-({[(2-methylphenyl)-amino]carbonyl}amino)phenyl]amino}-3-oxopropyl)amino]carbonyl}benzoic acid] | > 6.00 | 275 to 280 °C
5 | COc1ccc(C(CC(=O)Nc2ccc(NC(=O)Nc3ccccc3C)cc2)NC(=O)c2ccc(C(=O)OC(C)(C)C)cc2)cc1OC (stereo not shown) [Example VII, tert-Butyl-4-{[(1-(3,4-dimethoxyphenyl)-3-{[4-({[(2-methylphenyl)-amino]carbonyl}amino)phenyl]amino}-3-oxopropyl)amino]carbonyl}benzoate] | – | 210 to 215 °C
6 | COc1ccc(C(CC(=O)NCc2ccc(NC(=O)Nc3ccccc3C)cc2)NC(=O)c2ccc(C(=O)OC(C)(C)C)cc2)cc1OC (stereo not shown) [IX, tert-Butyl-4-{[(1-(3,4-dimethoxyphenyl)-3-{[4-({[(2-methylphenyl)amino]carbonyl}amino)benzyl]amino}-3-oxopropyl)amino]carbonyl}-benzoate] | – | 223 to 226 °C
7 | Cc1ccccc1NC(=O)Nc1ccc(CNC(=O)C2(CNC(=O)c3ccc(C(=O)OC(C)(C)C)cc3)CCCCC2)cc1 [VIII, tert-Butyl 4-[({[1-({[4-({[(2-methylphenyl)amino]carbonyl}amino)benzyl]amino}carbonyl)cyclohexyl]methyl}-amino)carbonyl]benzoate] | – | 187 to 189 °C
